{"source": "paper PMC6831664", "about": "“Synthesis of new isoquinoline-base-oxadiazole derivatives as potent inhibitors of thymidine phosphorylase and molecular docking study” (Scientific Reports, 2019)", "data": [{"biological_target": "thymidine phosphorylase (Escherichia coli, UniProt P07650)", "sequence (P07650 whole entry)": "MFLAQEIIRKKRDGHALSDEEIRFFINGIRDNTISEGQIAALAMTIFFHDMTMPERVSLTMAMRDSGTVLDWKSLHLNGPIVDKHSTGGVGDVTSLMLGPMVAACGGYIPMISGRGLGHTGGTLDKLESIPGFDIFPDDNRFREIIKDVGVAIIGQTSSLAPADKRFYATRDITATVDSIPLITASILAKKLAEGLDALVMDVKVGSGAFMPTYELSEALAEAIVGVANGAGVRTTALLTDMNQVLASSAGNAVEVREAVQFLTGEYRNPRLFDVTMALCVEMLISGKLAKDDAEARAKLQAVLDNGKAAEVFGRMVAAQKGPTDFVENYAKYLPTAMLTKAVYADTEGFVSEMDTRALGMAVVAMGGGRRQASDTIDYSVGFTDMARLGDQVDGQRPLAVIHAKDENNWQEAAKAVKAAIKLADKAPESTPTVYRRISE", "experiment": "In vitro thymidine phosphorylase inhibition (spectrophotometric, absorbance at 290 nm)", "assay_type": "biochemical, human and E. coli", "conditions": "not given", "method": "(§1) The desired activity of thymidine phosphorylase under this protocol was carried out with slight modification in the method described by Krenitsky and Bush in 1979[46],[47]. Here, TP activity was determined through spectrophotometrically by absorbance at 290 nm. Although the whole reaction mixture of 200 µL have the limit of 145 µL of potassium phosphate buffer (pH 7.4, 50 mM), 30 µL of enzyme (human and E. coli) by concentration 0.05 and 0.002 U, distinectly, followed by incubation through 5 µL of test materials (0.075, 0.15, 0.3 and 0.5 mM) at 25 °C for 10 min in triplet reader. Subsequently, pre-read at 290 nm was taken to conclude the absorbance of concern substrate particles. The crave substrate “thyimidin” (20 µL, 1.5 mM), was then dissolved in the buffer (potassium phosphate), followed by instant addition to plate with constant read after every 10, 20 and 30 min in micro plate reader (spectra max, molecular devices, CA, USA). All the assay were implemented in triplicate under positive control of 7-Deazxanthine.", "values": [{"smiles": "COc1cc(C=NNC(=O)c2ccc(-c3nnc(-c4cc5ccccc5cn4)o3)cc2)cc(OC)c1OC", "note": "[analogue 15, 4-(5-(isoquinolin-3-yl)-1,3,4-oxadiazol-2-yl)-N’-(3,4,5-trimethoxybenzylidene)benzohydrazide]", "inhibitory potential compared with the standard 7-Deazaxanthine (in words)": "good inhibitory activity"}, {"smiles": "COc1ccc(C=NNC(=O)c2ccc(-c3nnc(-c4cc5ccccc5cn4)o3)cc2)c(OC)c1OC", "note": "[analogue 19, 4-(5-(isoquinolin-3-yl)-1,3,4-oxadiazol-2-yl)-N’-(2,3,4-trimethoxybenzylidene)benzohydrazide]", "inhibitory potential compared with the standard 7-Deazaxanthine (in words)": "good inhibitory activity"}, {"smiles": "O=C(NN=Cc1c2ccccc2cc2ccccc12)c1ccc(-c2nnc(-c3cc4ccccc4cn3)o2)cc1", "note": "[analogue 2, N’-(anthracen-9-ylmethylene)-4-(5-(isoquinolin-3-yl)-1,3,4-oxadiazol-2-yl)benzohydrazide]", "inhibitory potential compared with the standard 7-Deazaxanthine (in words)": "good inhibitory activity"}]}, {"biological_target": "thymidine phosphorylase (Escherichia coli, UniProt P07650)", "experiment": "In vitro thymidine phosphorylase inhibition (spectrophotometric, absorbance at 290 nm)", "assay_type": "biochemical, human and E. coli", "conditions": "read-out: IC50 value, thymidine phosphorylase inhibitory activity", "method": "as §1", "units": {"IC50": "µM"}, "values": [{"smiles": "O=C(NN=Cc1cc(Cl)cc(Cl)c1O)c1ccc(-c2nnc(-c3cc4ccccc4cn3)o2)cc1", "note": "[analogue 9, N’-(3,5-dichloro-2-hydroxybenzylidene)-4-(5-(isoquinolin-3-yl)-1,3,4-oxadiazol-2-yl)benzohydrazide]", "IC50": "2.4 ± 0.1"}, {"smiles": "O=C(NN=Cc1ccc(COc2ccccc2)cc1)c1ccc(-c2nnc(-c3cc4ccccc4cn3)o2)cc1", "note": "[analogue 4, 4-(5-(isoquinolin-3-yl)-1,3,4-oxadiazol-2-yl)-N’-(4-(phenoxymethyl)benzylidene)benzohydrazide]", "IC50": "28.3 ± 0.5"}, {"smiles": "Nc1cccc(C=NNC(=O)c2ccc(-c3nnc(-c4cc5ccccc5cn4)o3)cc2)c1", "note": "[analogue 10, N’-(3-aminobenzylidene)-4-(5-(isoquinolin-3-yl)-1,3,4-oxadiazol-2-yl)benzohydrazide]", "IC50": "1.1 ± 0.1"}, {"smiles": "O=C(NN=Cc1ccccc1[N+](=O)[O-])c1ccc(-c2nnc(-c3cc4ccccc4cn3)o2)cc1", "note": "[analogue 1, 4-(5-(isoquinolin-3-yl)-1,3,4-oxadiazol-2-yl)-N’-(2-nitrobenzylidene)benzohydrazide]", "IC50": "6.3 ± 0.2"}, {"smiles": "COc1ccc(C=NNC(=O)c2ccc(-c3nnc(-c4cc5ccccc5cn4)o3)cc2)cc1O", "note": "[analogue 12, N’-(3-hydroxy-4-methoxybenzylidene)-4-(5-(isoquinolin-3-yl)-1,3,4-oxadiazol-2-yl)benzohydrazide]", "IC50": "4.6 ± 0.1"}, {"smiles": "COc1cc(C=NNC(=O)c2ccc(-c3nnc(-c4cc5ccccc5cn4)o3)cc2)cc(OC)c1OC", "note": "[analogue 15, 4-(5-(isoquinolin-3-yl)-1,3,4-oxadiazol-2-yl)-N’-(3,4,5-trimethoxybenzylidene)benzohydrazide]", "IC50": "47.3 ± 1.2"}, {"smiles": "COc1ccc(C=NNC(=O)c2ccc(-c3nnc(-c4cc5ccccc5cn4)o3)cc2)c(OC)c1OC", "note": "[analogue 19, 4-(5-(isoquinolin-3-yl)-1,3,4-oxadiazol-2-yl)-N’-(2,3,4-trimethoxybenzylidene)benzohydrazide]", "IC50": "54.6 ± 1.5"}, {"smiles": "O=C(NN=Cc1ccc(Cl)cc1)c1ccc(-c2nnc(-c3cc4ccccc4cn3)o2)cc1", "note": "[analogue 6, N’-(4-chlorobenzylidene)-4-(5-(isoquinolin-3-yl)-1,3,4-oxadiazol-2-yl)benzohydrazide]", "IC50": "16.4 ± 0.5"}, {"smiles": "N#Cc1ccccc1C=NNC(=O)c1ccc(-c2nnc(-c3cc4ccccc4cn3)o2)cc1", "note": "[analogue 16, N’-(2-cyanobenzylidene)-4-(5-(isoquinolin-3-yl)-1,3,4-oxadiazol-2-yl)benzohydrazide]", "IC50": "18.5 ± 0.5"}, {"smiles": "COc1cccc(C=NNC(=O)c2ccc(-c3nnc(-c4cc5ccccc5cn4)o3)cc2)c1O", "note": "[analogue 18, N’-(2-hydroxy-3-methoxybenzylidene)-4-(5-(isoquinolin-3-yl)-1,3,4-oxadiazol-2-yl)benzohydrazide]", "IC50": "7.3 ± 0.2"}, {"smiles": "O=C(NN=Cc1ccc(Cl)cc1Cl)c1ccc(-c2nnc(-c3cc4ccccc4cn3)o2)cc1", "note": "[analogue 3, N’-(2,4-dichlorobenzylidene)-4-(5-(isoquinolin-3-yl)-1,3,4-oxadiazol-2-yl)benzohydrazide]", "IC50": "3.3 ± 0.1"}, {"smiles": "COc1ccc(Br)cc1C=NNC(=O)c1ccc(-c2nnc(-c3cc4ccccc4cn3)o2)cc1", "note": "[analogue 7, N’-(5-bromo-2-methoxybenzylidene)-4-(5-(isoquinolin-3-yl)-1,3,4-oxadiazol-2-yl)benzohydrazide]", "IC50": "36.7 ± 0.9"}, {"smiles": "O=C(NN=Cc1ccc(O)c(O)c1O)c1ccc(-c2nnc(-c3cc4ccccc4cn3)o2)cc1", "note": "[analogue 20, 4-(5-(isoquinolin-3-yl)-1,3,4-oxadiazol-2-yl)-N’-(2,3,4-trihydroxybenzylidene)benzohydrazide]", "IC50": "1.1 ± 0.05"}, {"smiles": "CN(C)c1ccc(C=NNC(=O)c2ccc(-c3nnc(-c4cc5ccccc5cn4)o3)cc2)cc1", "note": "[analogue 8, N’-(4-(dimethylamino)benzylidene)-4-(5-(isoquinolin-3-yl)-1,3,4-oxadiazol-2-yl)benzohydrazide]", "IC50": "18.8 ± 0.5"}, {"smiles": "COc1cc(C=NNC(=O)c2ccc(-c3nnc(-c4cc5ccccc5cn4)o3)cc2)cc(OC)c1O", "note": "[analogue 11, N’-(4-hydroxy-3,5-dimethoxybenzylidene)-4-(5-(isoquinolin-3-yl)-1,3,4-oxadiazol-2-yl)benzohydrazide]", "IC50": "5.3 ± 0.2"}, {"smiles": "COc1cc(C=NNC(=O)c2ccc(-c3nnc(-c4cc5ccccc5cn4)o3)cc2)ccc1O", "note": "[analogue 13, N’-(4-hydroxy-3-methoxybenzylidene)-4-(5-(isoquinolin-3-yl)-1,3,4-oxadiazol-2-yl)benzohydrazide]", "IC50": "6 ± 0.2"}, {"smiles": "N#Cc1cccc(C=NNC(=O)c2ccc(-c3nnc(-c4cc5ccccc5cn4)o3)cc2)c1", "note": "[analogue 14, N’-(3-cyanobenzylidene)-4-(5-(isoquinolin-3-yl)-1,3,4-oxadiazol-2-yl)benzohydrazide]", "IC50": "27.4 ± 0.7"}, {"smiles": "N#Cc1ccc(C=NNC(=O)c2ccc(-c3nnc(-c4cc5ccccc5cn4)o3)cc2)cc1", "note": "[analogue 17, N’-(4-cyanobenzylidene)-4-(5-(isoquinolin-3-yl)-1,3,4-oxadiazol-2-yl)benzohydrazide]", "IC50": "22.1 ± 0.5"}, {"smiles": "CC(=NNC(=O)c1ccc(-c2nnc(-c3cc4ccccc4cn3)o2)cc1)c1ccc([N+](=O)[O-])cc1", "note": "[analogue 5, 4-(5-(isoquinolin-3-yl)-1,3,4-oxadiazol-2-yl)-N’-(1-(4-nitrophenyl)ethylidene)benzohydrazide]", "IC50": "14.6 ± 0.4"}, {"smiles": "O=C(NN=Cc1c2ccccc2cc2ccccc12)c1ccc(-c2nnc(-c3cc4ccccc4cn3)o2)cc1", "note": "[analogue 2, N’-(anthracen-9-ylmethylene)-4-(5-(isoquinolin-3-yl)-1,3,4-oxadiazol-2-yl)benzohydrazide]", "IC50": "39.4 ± 0.9"}]}]}
